Test: wn = mass fraction of the nth substance listed
Details: Liquid; for mass density: Vibrating tube method

OCCN(CCO)CCO [triethanolamine] + O
mass density [kg/m3]
Details | w1 = 0.0992 | w1 = 0.2 | w1 = 0.2991 | w1 = 0.4
333.15 K, 130000 kPa | 1045.8 | 1059 | 1072.9 | 1088.3
333.15 K, 140000 kPa | 1049.1 | 1062.4 | 1076 | 1091.4
353.15 K, 100 kPa | 985.7 | 999.5 | 1013.6 | 1029.7
353.15 K, 500 kPa | 985.7 | 999.6 | 1013.7 | 1029.8
353.15 K, 1000 kPa | 985.9 | 999.8 | 1013.9 | 1030
353.15 K, 2000 kPa | 986.4 | 1000.1 | 1014.3 | 1030.4
353.15 K, 5000 kPa | 987.7 | 1001.5 | 1015.6 | 1031.7
353.15 K, 10000 kPa | 989.9 | 1003.7 | 1017.8 | 1033.9
353.15 K, 15000 kPa | 992.1 | 1005.8 | 1019.9 | 1035.8
353.15 K, 20000 kPa | 994.1 | 1007.8 | 1021.9 | 1037.9
353.15 K, 30000 kPa | 998.2 | 1011.9 | 1025.9 | 1041.9
353.15 K, 40000 kPa | 1002.4 | 1015.9 | 1029.9 | 1045.8
353.15 K, 50000 kPa | 1006.2 | 1019.8 | 1033.8 | 1049.5
353.15 K, 60000 kPa | 1010.2 | 1023.7 | 1037.6 | 1053.3
353.15 K, 70000 kPa | 1014 | 1027.4 | 1041.2 | 1056.9
353.15 K, 80000 kPa | 1017.6 | 1031.1 | 1044.8 | 1060.4
353.15 K, 90000 kPa | 1021.2 | 1034.5 | 1048.3 | 1063.8
353.15 K, 100000 kPa | 1024.8 | 1038.1 | 1051.8 | 1067.2
353.15 K, 110000 kPa | 1028.4 | 1041.5 | 1055.2 | 1070.5
353.15 K, 120000 kPa | 1031.8 | 1044.9 | 1058.5 | 1073.9
353.15 K, 130000 kPa | 1035.2 | 1048.2 | 1061.8 | 1077.1
353.15 K, 140000 kPa | 1038.4 | 1051.5 | 1065 | 1080.1
373.15 K, 100 kPa | 971.7 | 985.1 | 999.2 | 1014.6
373.15 K, 500 kPa | 971.9 | 985.3 | 999.3 | 1014.8
373.15 K, 1000 kPa | 972.2 | 985.5 | 999.6 | 1015
373.15 K, 2000 kPa | 972.6 | 986.1 | 1000.1 | 1015.5
373.15 K, 5000 kPa | 973.9 | 987.4 | 1001.5 | 1016.8
373.15 K, 10000 kPa | 976.3 | 989.7 | 1003.8 | 1019.1
373.15 K, 15000 kPa | 978.5 | 991.9 | 1006 | 1021.2
373.15 K, 20000 kPa | 980.6 | 994 | 1008.2 | 1023.4

viscosity [mPa·s]
Details | w1 = 0.0992 | w1 = 0.1 | w1 = 0.2 | w1 = 0.2991 | w1 = 0.3 | w1 = 0.4
353.15 K, 100 kPa, Concentric cylinders viscometry | – | 0.469 | 0.569 | – | 0.81 | 1.125
353.15 K, 100 kPa, Falling or rolling sphere viscometry | 0.4585 | – | 0.5805 | 0.8052 | – | 1.124
353.15 K, 5000 kPa, Falling or rolling sphere viscometry | 0.451 | – | 0.5825 | 0.7994 | – | 1.125
353.15 K, 10000 kPa, Falling or rolling sphere viscometry | 0.4541 | – | 0.5878 | 0.8046 | – | 1.136
353.15 K, 15000 kPa, Falling or rolling sphere viscometry | 0.4547 | – | 0.5898 | 0.811 | – | 1.146
353.15 K, 20000 kPa, Falling or rolling sphere viscometry | 0.4578 | – | 0.5937 | 0.8144 | – | 1.154
353.15 K, 25000 kPa, Falling or rolling sphere viscometry | 0.4595 | – | 0.5975 | 0.821 | – | 1.164
353.15 K, 30000 kPa, Falling or rolling sphere viscometry | 0.4619 | – | 0.6006 | 0.8266 | – | 1.173
353.15 K, 40000 kPa, Falling or rolling sphere viscometry | 0.466 | – | 0.6068 | 0.8374 | – | 1.193
353.15 K, 60000 kPa, Falling or rolling sphere viscometry | 0.4738 | – | 0.6185 | 0.8576 | – | 1.229
353.15 K, 80000 kPa, Falling or rolling sphere viscometry | 0.4813 | – | 0.6313 | 0.8785 | – | 1.266
353.15 K, 100000 kPa, Falling or rolling sphere viscometry | 0.4891 | – | 0.6459 | 0.9019 | – | 1.306
373.15 K, 5000 kPa, Falling or rolling sphere viscometry | 0.3584 | – | 0.444 | 0.5867 | – | 0.7909
373.15 K, 10000 kPa, Falling or rolling sphere viscometry | 0.356 | – | 0.4475 | 0.5894 | – | 0.8001
373.15 K, 15000 kPa, Falling or rolling sphere viscometry | 0.3581 | – | 0.451 | 0.5951 | – | 0.809
373.15 K, 20000 kPa, Falling or rolling sphere viscometry | 0.3595 | – | 0.4534 | 0.5996 | – | 0.819
373.15 K, 25000 kPa, Falling or rolling sphere viscometry | 0.3618 | – | 0.4562 | 0.6046 | – | 0.8242
